Values quoted from earlier work as cited in patent US8568753B2, “Delivery system” (Starpharma Pty Limited, priority 2005, dated 2013).

Tested on: herpes simplex virus type 2 (HSV-2), Strain G
Conditions: previous studies

Question: Which “relative susceptibility to HSV-2 infection vs control animals” value does the source give for nonoxynol-9 here?
Answer: The value was 29.7 times.

Question: And the “animals infected with HSV-2” value (low-dose inoculum)?
Answer: The value was 29 out of 42.
